Data from patent publication US12012440B2, “Compositions and methods for treatment of fungal infections” (priority 2020, dated 2024).
Bridge positions count the residues as written; N and C are the ends. Ends that are not written are not given here.

Assays:
C. albicans SC5314 [1] = experiment: Murine in vivo model of disseminated candidiasis: survival and body weight; details: for survival efficacy: 30 days p.i.; for survival as efficacy metric compared with Cyclic Peptide 5: candidemia model, FIGS. 10 to 15; for survival by end point analysis compared with fluconazole: χ^2 analysis at day 30 p.i.; for survival of treated mice compared to saline controls, log-rank P: observed 26 days p.i.; for survival of treated mice compared to saline controls, log-rank P / survival efficacy compared with 5 mg/kg fluconazole: FIG. 9; for survival efficacy compared with 5 mg/kg fluconazole: 0.25 mg/kg Cyclic Peptide 5, 5 mg/kg RTD-1
Procedure: Mice were infected i.v. at T=0 with 3×10^5 blastospores of C. albicans genetically defined reference strain SC5314.
Mice were infected i.v. at T=0 with 3×10^5 blastospores of C. albicans SC5314. At T=24 h, mice were treated i.p. daily for 7 d w.
In activity studies the synthetic cyclic tetradecapeptide Cyclic Peptide 5 (SEQ ID NO. 6), which was identified initially as having significant antifungal activity, was used as a model peptide. Briefly, 7-8 week old, immunocompetent, female BALB/c mice were challenged i.v. at T=0 with 3×10^5 CFU of C. albicans SC5314. […]
Under these test protocols C. albicans-infected mice treated with saline presented with ruffled fur and significant weight loss, and became moribund within 5-10 days, by which time there was >30% body weight loss.

C. albicans SC5314 [2] = experiment: Renal fungal burden in kidney homogenates, murine disseminated candidiasis model; type: in vivo; details: FIG. 16; for renal fungal burden compared with fluconazole / renal fungal burden compared with fluconazole, P (Fisher's LSD test): long term survivors 30 days p.i.
Excerpt: In activity studies the synthetic cyclic tetradecapeptide Cyclic Peptide 5 (SEQ ID NO. 6), which was identified initially as having significant antifungal activity, was used as a model peptide. Briefly, 7-8 week old, immunocompetent, female BALB/c mice were challenged i.v. at T=0 with 3×10^5 CFU of C. albicans SC5314.

[3] = test system: susceptible and multiple drug resistant strains of C. albicans; details: long term, on treatment with RTD-1; cited from earlier work
C. albicans = details: cited from earlier work
[4] = 5 mg/kg i.p. daily for 7 d from T=24 h

| Molecule | survival as efficacy metric compared with Cyclic Peptide 5 (C. albicans SC5314 [1]) | survival by end point analysis compared with fluconazole (C. albicans SC5314 [1]) | renal fungal burden compared with fluconazole (C. albicans SC5314 [2]) | renal fungal burden compared with fluconazole, P (Fisher's LSD test) (C. albicans SC5314 [2]) | survival of treated mice compared to saline controls, log-rank P (C. albicans SC5314 [1]; [4]) | further results |
| --- | --- | --- | --- | --- | --- | --- |
| Cyclic Peptide 3: synthetic cyclic tetradecapeptide θ-defensin analog; positions 3-14,1,2: C I C R R R V C I C R R G V (GVCICRRRVCICRR; cyclic backbone; Cyclic Peptide 3) | equivalent or superior to Cyclic Peptide 5 | more effective than fluconazole | reduced fungal burden to a greater extent than fluconazole | 7.4×10^−3 |  | survival efficacy (C. albicans SC5314 [1]; 0.1 mg/kg i.p. daily for 7 d): effective |
| Cyclic Peptide 6: synthetic cyclic tetradecapeptide θ-defensin analog; positions 3-14,1,2: C R C R R G V C R C R R G V (GVCRCRRGVCRCRR; not fully specified (bridges); ends and bridges not checked; also: cyclic (type not given here)) | equivalent or superior to Cyclic Peptide 5 | more effective than fluconazole |  |  |  | survival compared with fluconazole and Cyclic Peptide 5 (C. albicans SC5314 [1]; peptides at 0.25 mg/kg, FIG. 15): survival that exceeded that of both a prior art antifungal drug (fluconazole) and Circular Peptide 5 |
| Cyclic Peptide 4: synthetic cyclic tetradecapeptide θ-defensin analog; positions 3-14,1,2: C I C R R R A C L C R R G L (GLCICRRRACLCRR; cyclic backbone; Cyclic Peptide 4) | equivalent or superior to Cyclic Peptide 5 | more effective than fluconazole | reduced fungal burden to a greater extent than fluconazole | 0.02 |  | survival efficacy (C. albicans SC5314 [1]; 0.25 mg/kg i.p. daily for 7 d): effective |
| CC[C@H](C)C[C@H](C)CCCCCCCCC(=O)N[C@H]1C[C@@H](O)[C@@H](NCCN)NC(=O)[C@@H]2[C@@H](O)CCN2C(=O)[C@H]([C@H](O)CCN)NC(=O)[C@H]([C@H](O)[C@@H](O)c2ccc(O)cc2)NC(=O)[C@@H]2C[C@@H](O)CN2C(=O)[C@H]([C@@H](C)O)NC1=O [Caspofungin, caspofungin, reference compound] |  |  |  |  | 3.4×10^−6 |  |
| RTD-1: naturally occurring θ-defensin of rhesus monkeys, cyclic octadecapeptide with 3 disulfide bonds (cyclo(GFCRCLCRRGVCRCICTR); disulfide (positions not given here); not fully specified (bridges); also: three disulfide bonds, pairing not given here; listed as Macaca mulatta) |  |  |  |  | 3.4×10^−6 | survival efficacy compared with 5 mg/kg fluconazole (C. albicans SC5314 [1]): more effective than 5 mg/kg of fluconazole; pro-inflammatory cytokine production in vivo [3]: reduction in long term production of pro-inflammatory cytokines; in vitro antifungal activity in presence of serum (C. albicans; presence of serum): abolished by the presence of serum; in vitro active concentration relative to concentrations effective in vivo (C. albicans; vs murine animal model studies): ≥ 50 fold |
| Cyclic Peptide 5: model synthetic cyclic tetradecapeptide θ-defensin analog; positions 3-14,1,2: C I C R R R F C L C R R G V (GVCICRRRFCLCRR; cyclic backbone; Cyclic Peptide 5) |  |  | reduced fungal burden to a greater extent than fluconazole | 3×10^−3 |  | survival efficacy compared with 5 mg/kg fluconazole (C. albicans SC5314 [1]): more effective than 5 mg/kg of fluconazole; survival efficacy compared with RTD-1 (C. albicans SC5314 [1]; 0.25 mg/kg Cyclic Peptide 5 vs 5 mg/kg RTD-1, i.p. once a day for 7 days, BALB/c mice): more effective than 5 mg/kg of RTD-1; survival of treated mice compared to saline controls, log-rank P (C. albicans SC5314 [1]; 0.25 mg/kg i.p. daily for 7 d from T=24 h): 2.3×10^−7; survival efficacy (FIG. 10) (C. albicans SC5314 [1]; 0.25 mg/kg or 0.1 mg/kg, results similar to treatment with saline): relatively ineffective |
| Cyclic Peptide 1: synthetic cyclic tetradecapeptide θ-defensin analog; positions 3-14,1,2: C S C R R R F C L C R R G V (GVCSCRRRFCLCRR; cyclic backbone; Cyclic Peptide 1) | equivalent or superior to Cyclic Peptide 5 | more effective than fluconazole | reduced fungal burden to a greater extent than fluconazole | 3.5×10^−5 |  | survival efficacy (C. albicans SC5314 [1]; 0.1 mg/kg i.p. daily for 7 d): effective; survival efficacy (C. albicans SC5314 [1]; 0.25 mg/kg i.p. daily for 7 d): effective |
| Cyclic Peptide 2: synthetic cyclic tetradecapeptide θ-defensin analog; positions 3-14,1,2: C S C R R R F C I C R R G V (cyclo(GVCSCRRRFCICRR); disulfide 5-10, 3-12) | equivalent or superior to Cyclic Peptide 5 |  |  |  |  |  |
| OC(Cn1cncn1)(Cn1cncn1)c1ccc(F)cc1F [Fluconazole, fluconazole, reference compound] |  |  |  |  | 3.4×10^−6 | renal fungal burden (C. albicans SC5314 [2]; 5 mg/kg, long term survivors 30 days p.i. vs moribund saline controls): reduced fungal burden |
